Assay results as given in patent publication US20240360157A1, “TYK2 INHIBITORS” (BIOGEN MA INC., priority 2021, published 2024).

Experiments:
Format in all cases: biochemical
[1] = biological target: human TYK2 catalytic kinase (JH1) domain (Homo sapiens (Human), UniProt P29597); experiment: ADP-Glo Kinase Assay, recombinant TYK2 catalytic kinase (JH1) domain; conditions: recombinant JH1 domain 2 nM, 10 μM ATP, JAK3-974 peptide, mean, read-out: TYK2 biochem IC50 (nM) Mean
Procedure, shortened: (§1)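 Reactions ran 100 min with 50 μM substrate peptide (JAK3-342 for JAK1 at 4 nM enzyme; JAK3-974 for JAK2 0.2 nM, JAK3 0.3 nM, TYK2 2 nM), and ADP formed was read by ADP-Glo luminescence. Eleven-point 3-fold series from 10 or 1 μM; IC50 fitted by 4-parameter logistic model.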

[2] = biological target: human JAK1 catalytic kinase (JH1) domain (Homo sapiens (Human), UniProt P23458); experiment: ADP-Glo Kinase Assay, recombinant JAK1 catalytic kinase (JH1) domain; conditions: recombinant JH1 domain 4 nM, 35 μM ATP, JAK3-342 peptide, mean, read-out: JAK1 biochem IC50 (nM) Mean
Procedure, shortened: as §1

[3] = biological target: human JAK2 catalytic kinase (JH1) domain (Homo sapiens (Human), UniProt O60674); experiment: ADP-Glo Kinase Assay, recombinant JAK2 catalytic kinase (JH1) domain; conditions: recombinant JH1 domain 0.2 nM, 15 μM ATP, JAK3-974 peptide, mean, read-out: JAK2 biochem IC50 (nM) Mean
Procedure, shortened: as §1

[4] = biological target: human JAK3 catalytic kinase (JH1) domain (Homo sapiens (Human), UniProt P52333); experiment: ADP-Glo Kinase Assay, recombinant JAK3 catalytic kinase (JH1) domain; conditions: recombinant JH1 domain 0.3 nM, 4 μM ATP, JAK3-974 peptide, mean, read-out: JAK3 biochem IC50 (nM) Mean
Procedure, shortened: as §1

Chain of human JAK2 catalytic kinase (JH1) domain (O60674 849-1124): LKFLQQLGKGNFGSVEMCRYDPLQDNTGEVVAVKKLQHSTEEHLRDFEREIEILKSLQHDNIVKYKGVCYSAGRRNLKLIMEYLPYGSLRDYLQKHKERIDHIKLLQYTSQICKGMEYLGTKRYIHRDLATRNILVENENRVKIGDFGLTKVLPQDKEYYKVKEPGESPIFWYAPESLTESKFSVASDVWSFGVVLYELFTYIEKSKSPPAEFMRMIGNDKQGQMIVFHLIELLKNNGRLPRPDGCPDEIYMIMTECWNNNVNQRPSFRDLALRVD
Chain of human TYK2 catalytic kinase (JH1) domain (P29597 897-1176): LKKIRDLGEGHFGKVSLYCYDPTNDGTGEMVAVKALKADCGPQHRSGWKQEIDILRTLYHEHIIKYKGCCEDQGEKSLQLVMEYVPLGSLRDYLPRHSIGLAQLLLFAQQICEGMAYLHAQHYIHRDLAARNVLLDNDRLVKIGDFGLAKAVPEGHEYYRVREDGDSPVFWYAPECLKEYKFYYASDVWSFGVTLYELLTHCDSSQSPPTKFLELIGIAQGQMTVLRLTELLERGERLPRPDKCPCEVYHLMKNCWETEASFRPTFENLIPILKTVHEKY
Chain of human JAK1 catalytic kinase (JH1) domain (P23458 875-1153): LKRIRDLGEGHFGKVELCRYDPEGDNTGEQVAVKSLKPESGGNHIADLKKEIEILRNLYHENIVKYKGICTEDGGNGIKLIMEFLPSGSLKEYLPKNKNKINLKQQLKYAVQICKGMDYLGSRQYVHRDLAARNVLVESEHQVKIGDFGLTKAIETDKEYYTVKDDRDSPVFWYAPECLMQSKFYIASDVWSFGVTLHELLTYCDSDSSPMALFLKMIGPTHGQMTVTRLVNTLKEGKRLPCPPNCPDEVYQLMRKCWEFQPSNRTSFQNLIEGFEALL
Chain of human JAK3 catalytic kinase (JH1) domain (P52333 822-1111): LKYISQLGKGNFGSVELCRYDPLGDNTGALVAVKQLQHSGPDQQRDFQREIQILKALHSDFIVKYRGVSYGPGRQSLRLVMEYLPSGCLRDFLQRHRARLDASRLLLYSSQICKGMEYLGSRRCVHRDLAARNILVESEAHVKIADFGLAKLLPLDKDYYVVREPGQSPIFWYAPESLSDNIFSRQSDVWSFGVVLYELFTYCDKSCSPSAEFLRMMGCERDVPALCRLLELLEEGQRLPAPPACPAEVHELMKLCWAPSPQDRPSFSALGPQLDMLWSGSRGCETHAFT

Row | SMILES | IC50 [1] [nM] | IC50 [2] [nM] | IC50 [3] [nM] | IC50 [4] [nM]
1 | CN(C)c1cc(-c2cc3c(N4CC5CCC(C4)N5C(=O)[C@@H]4C[C@H]4F)ccnn3c2)cnn1 [Example 138, (3-(6-(6-(dimethylamino)pyridazin-4-yl)pyrrolo[1,2-b]pyridazin-4-yl)-3,8-diazabicyclo[3.2.1]octan-8-yl)((1S,2R)-2-fluorocyclopropyl)methanone] | 13.8 | 57 | 395 | 3930
2 | COc1cc(-c2cc3c(N4CC5CCC(C4)N5C(=O)[C@@H]4C[C@H]4F)c(F)cnc3[nH]2)ccn1 [Example 139, (3-(5-fluoro-2-(2-methoxypyridin-4-yl)-1H-pyrrolo[2,3-b]pyridin-4-yl)-3,8-diazabicyclo[3.2.1]octan-8-yl)((1S,2R)-2-fluorocyclopropyl)methanone] | 5.5 | 39 | 74 | 144
3 | O=C(C1CC1)N1C2CCC1CN(c1c(F)cnn3cc(-c4cnn(C(F)F)c4)cc13)C2 [Example 140, cyclopropyl(3-(6-(1-(difluoromethyl)-1H-pyrazol-4-yl)-3-fluoropyrrolo[1,2-b]pyridazin-4-yl)-3,8-diazabicyclo[3.2.1]octan-8-yl)methanone] | 56 | 834 | 1480 | 738
4 | Cn1cnc(-c2cc3c(N4CC5CCC(C4)N5C(=O)C4CC4)ncnn3c2)c1 [Example 143, Cyclopropyl(3-(6-(1-methyl-1H-imidazol-4-yl)pyrrolo[2,1-f][1,2,4]triazin-4-yl)-3,8-diazabicyclo[3.2.1]octan-8-yl)methanone] | 533 | 10000 | 9940 | 9690
5 | O=C(C1CC1)N1C2CCC1CN(c1ncnn3cc(-c4cnn(C(F)F)c4)cc13)C2 [Example 144] | 622 | 9320 | 10000 | 10000
6 | Cn1cc(-c2cc3c(N4CC5CCC(C4)N5C(=O)C4CC4)ncnn3c2)c(F)n1 [Example 145] | 202 | 2360 | 6020 | 6520
7 | Cn1cc(-c2cc3c(N4CC5CCC(C4)N5C(=O)C4CC4)ncnn3c2)cn1 [Example 146, cyclopropyl(3-(6-(1-methyl-1H-pyrazol-4-yl)pyrrolo[2,1-f][1,2,4]triazin-4-yl)-3,8-diazabicyclo[3.2.1]octan-8-yl)methanone] | 166 | 1880 | 5850 | 3240
8 | CCn1cc(-c2cc3c(N4CC5CCC(C4)N5C(=O)C4CC4)ncnn3c2)cn1 [Example 147] | 147 | 974 | 2960 | 2090
9 | CC(C)n1cc(-c2cc3c(N4CC5CCC(C4)N5C(=O)C4CC4)ncnn3c2)cn1 [Example 148] | 136 | 731 | 1650 | 2140
10 | O=C(C1CC1)N1C2CCC1CN(c1ncnn3cc(-c4cnn(C5CCC5)c4)cc13)C2 [Example 149] | 141 | 942 | 3130 | 3010
11 | O=C(C1CC1)N1C2CCC1CN(c1ncnn3cc(-c4cnn(C(F)F)c4)cc13)C2 [Example 150] | 190 | 1850 | 3370 | 5620
12 | O=C(C1CC1)N1C2CCC1CN(c1ncnn3cc(-c4cnn(C5COC5)c4)cc13)C2 [Example 151] | 239 | 3300 | 4100 | 3380
13 | O=C(C1CC1)N1C2CCC1CN(c1ncnn3cc(-c4cnn(C5CCOC5)c4)cc13)C2 (centres unmarked) [Example 152] | 145 | 1670 | 2150 | 2590
14 | O=C(C1CC1)N1C2CCC1CN(c1ncnn3cc(-c4cnn(C5CCOCC5)c4)cc13)C2 [Example 153] | 99.2 | 1280 | 1520 | 1900
15 | O=C(C1CC1)N1C2CCC1CN(c1ncnn3cc(-c4cnn(C(F)(F)F)c4)cc13)C2 [Example 154] | 490 | 2950 | 10000 | 10000
16 | O=C(C1CC1)N1C2CCC1CN(c1ncnn3cc(-c4cnn(CF)c4)cc13)C2 [Example 155] | 293 | 1810 | 5180 | 4000
17 | O=C(C1CC1)N1C2CCC1CN(c1ncnn3cc(-c4cnn([C@@H]5CCOC5)c4)cc13)C2 [Example 156, cyclopropyl(3-(6-(1-((R)-tetrahydrofuran-3-yl)-1H-pyrazol-4-yl)pyrrolo[2,1-f][1,2,4]triazin-4-yl)-3,8-diazabicyclo[3.2.1]octan-8-yl)methanone] | 251 | 1500 | 3860 | 3850
18 | O=C(C1CC1)N1C2CCC1CN(c1ncnn3cc(-c4cnn([C@H]5CCOC5)c4)cc13)C2 [Example 157, cyclopropyl(3-(6-(1-((S)-tetrahydrofuran-3-yl)-1H-pyrazol-4-yl)pyrrolo[2,1-f][1,2,4]triazin-4-yl)-3,8-diazabicyclo[3.2.1]octan-8-yl)methanone] | 151 | 1380 | 2270 | 2250

Row | SMILES | IC50 [1] [nM] | IC50 [2] [nM] | IC50 [3] [nM] | IC50 [4] [nM]
19 | Cc1cc(-c2cc3c(N4CC5CCC(C4)N5C(=O)C4CC4)ncnn3c2)on1 [Example 158, Cyclopropyl(3-(6-(3-methylisoxazol-5-yl)pyrrolo[2,1-f][1,2,4]triazin-4-yl)-3,8-diazabicyclo[3.2.1]octan-8-yl)methanone] | 656 | 8060 | 10000 | 10000
20 | Cn1cc(-c2cc3c(N4CC5CCC(C4)N5C(=O)[C@@H]4C[C@H]4F)ccnn3c2)cn1 [Example 159, ((1S,2R)-2-fluorocyclopropyl)(3-(6-(1-methyl-1H-pyrazol-4-yl)pyrrolo[1,2-b]pyridazin-4-yl)-3,8-diazabicyclo[3.2.1]octan-8-yl)methanone] | 1.1 | 51 | 30 | 263
21 | O=C(C1CC1)N1C2CCC1CN(c1ncnn3cc(-c4cnn(CC5COC5)c4)cc13)C2 [Example 160] | 107 | 555 | 931 | 780
22 | CCn1ncc(-c2cc3c(N4CC5CCC(C4)N5C(=O)C4CC4)ncnn3c2)c1F [Example 161] | 120 | 492 | 2460 | 1230
23 | CC(C)n1ncc(-c2cc3c(N4CC5CCC(C4)N5C(=O)C4CC4)ncnn3c2)c1F [Example 162] | 94.9 | 210 | 1620 | 1250
24 | O=C(C1CC1)N1C2CCC1CN(c1ncnn3cc(-c4cnn(C(F)F)c4)c(F)c13)C2 [Example 163] | 746 | 5120 | 10000 | 10000
25 | O=C([C@@H]1C[C@H]1F)N1C2CCC1CN(c1ncnn3cc(-c4ccnc(F)c4)cc13)C2 [Example 164] | 48.8 | 447 | 1300 | 7250
26 | Cn1cc(-c2cc3c(N4CC5CCC(C4)N5C(=O)[C@@H]4C[C@H]4F)ncnn3c2)ccc1=O [Example 165] | 40.3 | 478 | 902 | 4140
27 | Cc1cc(-c2cc3c(N4CC5CCC(C4)N5C(=O)[C@@H]4C[C@H]4F)ncnn3c2)on1 [Example 166] | 56 | 1160 | 1050 | 9260
28 | Cn1cc(-c2cc3c(N4CC5CCC(C4)N5C(=O)[C@@H]4C[C@H]4F)ncnn3c2)cc(F)c1=O [Example 167] | 95 | 2210 | 1740 | 10000
29 | Cc1c(-c2cc3c(N4CC5CCC(C4)N5C(=O)C4CC4)ncnn3c2)cnn1C [Example 168] | 317 | 5470 | 7850 | 7690
30 | O=C([C@@H]1C[C@H]1F)N1C2CCC1CN(c1ccnn3cc(-c4ccc(F)nc4)cc13)C2 [Example 169] | 1.8 | 47 | 49 | 288
31 | O=C([C@@H]1C[C@H]1F)N1C2CCC1CN(c1ccnn3cc(-c4ccnc(F)c4)cc13)C2 [Example 170] | 1.2 | 25 | 36 | 344
32 | Cn1ccc(-c2cc3c(N4CC5CCC(C4)N5C(=O)[C@@H]4C[C@H]4F)ccnn3c2)cc1=O [Example 171] | 1.5 | 136 | 28 | 322
33 | Cn1cc(-c2cc3c(N4CC5CCC(C4)N5C(=O)[C@@H]4C[C@H]4F)ccnn3c2)ccc1=O [Example 172] | 2.6 | 32 | 54 | 595
34 | Cc1cc(-c2cc3c(N4CC5CCC(C4)N5C(=O)[C@@H]4C[C@H]4F)ccnn3c2)on1 [Example 173] | 2.4 | 81 | 37 | 793
35 | Cn1cc(-c2cc3c(N4CC5CCC(C4)N5C(=O)[C@@H]4C[C@H]4F)ccnn3c2)cc(F)c1=O [Example 174] | 6.6 | 149 | 84 | 1600
